Source: paper PMC10213791 (Acta Pharmaceutica Sinica. B, 2022)

Tests used:
[1] = target: T1, eukaryotic translation elongation factor 1 alpha 1 (eEF1A1) (Homo sapiens, UniProt P68104); assay: SPR; assay type: binding
T1 sequence (P68104 2-462): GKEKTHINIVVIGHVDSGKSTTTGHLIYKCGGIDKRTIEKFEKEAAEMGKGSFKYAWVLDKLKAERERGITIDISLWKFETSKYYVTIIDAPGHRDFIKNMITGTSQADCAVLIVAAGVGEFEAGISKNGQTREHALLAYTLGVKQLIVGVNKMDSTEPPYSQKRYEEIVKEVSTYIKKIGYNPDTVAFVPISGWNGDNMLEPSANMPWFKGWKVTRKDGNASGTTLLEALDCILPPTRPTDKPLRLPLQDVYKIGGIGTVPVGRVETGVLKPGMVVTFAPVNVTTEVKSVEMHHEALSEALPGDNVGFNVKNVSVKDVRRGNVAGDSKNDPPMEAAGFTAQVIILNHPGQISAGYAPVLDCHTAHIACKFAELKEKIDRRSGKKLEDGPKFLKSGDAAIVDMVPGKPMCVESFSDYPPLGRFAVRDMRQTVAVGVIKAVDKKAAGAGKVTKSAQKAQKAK

[2] = target: T2, vacuolar protein sorting 4 homolog B (VPS4B) (Homo sapiens, UniProt O75351); assay: SPR; assay type: binding
T2 sequence (O75351 1-444): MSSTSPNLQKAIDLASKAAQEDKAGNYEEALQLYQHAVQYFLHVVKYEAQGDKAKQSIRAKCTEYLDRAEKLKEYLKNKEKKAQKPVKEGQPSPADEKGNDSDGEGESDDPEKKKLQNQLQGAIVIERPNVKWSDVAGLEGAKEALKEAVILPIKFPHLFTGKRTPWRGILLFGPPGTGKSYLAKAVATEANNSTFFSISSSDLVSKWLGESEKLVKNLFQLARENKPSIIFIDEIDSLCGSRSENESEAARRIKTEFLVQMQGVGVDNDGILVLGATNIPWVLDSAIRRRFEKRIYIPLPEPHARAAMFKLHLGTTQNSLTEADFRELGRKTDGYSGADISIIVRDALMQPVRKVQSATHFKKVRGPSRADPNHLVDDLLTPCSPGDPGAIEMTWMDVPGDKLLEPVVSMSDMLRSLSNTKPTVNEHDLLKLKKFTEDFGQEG

peroxiredoxin 3 (PRDX3) = target: T3, peroxiredoxin 3 (PRDX3) (Homo sapiens, UniProt P30048); assay: SPR; assay type: binding
T3 sequence (P30048 62-256): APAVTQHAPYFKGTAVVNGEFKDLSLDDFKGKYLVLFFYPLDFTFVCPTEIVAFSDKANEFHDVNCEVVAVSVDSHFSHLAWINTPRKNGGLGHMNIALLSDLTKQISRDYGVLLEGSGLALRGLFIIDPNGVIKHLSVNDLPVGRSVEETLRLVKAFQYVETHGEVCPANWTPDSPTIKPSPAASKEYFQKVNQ

EIF2AK2 = EIF2AK2 (Homo sapiens, UniProt P19525); assay: biochemical
Sequence of EIF2AK2 (P19525 2-551): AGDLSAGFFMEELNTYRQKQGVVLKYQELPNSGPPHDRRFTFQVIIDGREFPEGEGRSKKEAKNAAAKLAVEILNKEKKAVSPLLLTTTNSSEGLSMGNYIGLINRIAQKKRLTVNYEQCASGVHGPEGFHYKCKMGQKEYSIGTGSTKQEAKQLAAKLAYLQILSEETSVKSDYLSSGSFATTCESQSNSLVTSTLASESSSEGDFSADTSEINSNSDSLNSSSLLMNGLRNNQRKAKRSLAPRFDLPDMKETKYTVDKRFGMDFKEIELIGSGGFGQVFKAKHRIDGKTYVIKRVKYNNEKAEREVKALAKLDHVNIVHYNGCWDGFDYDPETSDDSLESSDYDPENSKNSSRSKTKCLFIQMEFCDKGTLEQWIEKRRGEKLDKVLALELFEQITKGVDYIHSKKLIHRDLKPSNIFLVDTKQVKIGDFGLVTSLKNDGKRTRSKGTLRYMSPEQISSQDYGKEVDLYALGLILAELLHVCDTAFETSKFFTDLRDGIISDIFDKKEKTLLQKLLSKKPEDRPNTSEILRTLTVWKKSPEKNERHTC

Compound `COc1ccc2cc3[n+](cc2c1OC)CCc1cc2c(cc1-3)OCO2` [BBR, berberine] has a Kd [1] of 13.4 µM, a Kd [2] of 16.8 µM and a Kd (peroxiredoxin 3 (PRDX3)) of 23.7 µM.

With `O=C1Nc2ccc3ncsc3c2/C1=C/c1c[nH]cn1` [C16] the IC50 (EIF2AK2) was 1.01 µM.
